This assay has as its target T1, PhoP (Salmonella enterica I, UniProt A6XC03).
T1 sequence (A6XC03 whole entry): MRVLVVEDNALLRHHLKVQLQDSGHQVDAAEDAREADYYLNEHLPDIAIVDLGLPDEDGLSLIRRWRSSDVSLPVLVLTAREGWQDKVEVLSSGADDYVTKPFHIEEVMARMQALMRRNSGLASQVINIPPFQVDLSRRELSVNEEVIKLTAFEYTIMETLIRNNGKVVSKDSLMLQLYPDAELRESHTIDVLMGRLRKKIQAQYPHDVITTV
Description: Inhibition Assay. The source says: Inhibition of a protein-protein activity by EMSA assay.

The term IC50 denotes the concentration that gives 50% inhibition. High values mean weaker potency, low ones greater potency.

In turn, `CC(C)c1ccc2c(c1)CCC1C(C)(CN)CCCC21C` (stereo not drawn) [NSC65238, 5] gave a half-inhibitory concentration (IC50) of 20 µM.
For the molecule `CN(C)CCC(=O)C1(O)CCC2C3CC=C4CC(O)CCC4(C)C3CCC21C` (stereo not drawn) [NSC48630, 3], half-maximal inhibition (IC50) required 3.6 µM.
The value for `O=S(=O)(O)c1ccc2c(N=Nc3c(O)ccc4ccccc34)cccc2c1` [NSC45576, 2] was 12 µM; that for `O=C(C[n+]1ccc2ccccc2c1)c1ccc2ccc3ccccc3c2c1` [NSC35489, 4] was 14000 µM.
Then `c1ccc(C[n+]2cccc(-c3cc4ccccc4[nH]3)c2)cc1` [NSC118806, 7], with 109 µM.
In turn, `CC12CCC(=O)C=C1CCC1C2CCC2(C)C(C(=O)COS(=O)(=O)c3ccc(Br)cc3)CCC12` (stereo not drawn) [NSC88915, 6] came in with an IC50 of 17 µM.
In turn, `O=C1c2ccccc2C(=O)c2c1ccc(C(=O)O)c2-c1cccc2ccccc12` [NSC9608, 1] returned an IC50 of 11000 µM. This IC50 is about 650-fold higher than that of the molecule before.
The molecule `N#Cc1ccc(OC(=O)c2ccc(NC(=N)N)cc2)cc1` [NSC168197, 8] returned an IC50 of 285 µM.
